Experimental data reported in US11396518B2, “Solid forms of thiophene derivatives” (TIANJIN HEMAY PHARMACEUTICAL CO., LTD., priority 2018, dated 2022).

Legend:
Format in all cases: physicochemical
[1] = Hygroscopicity (XRPD after moisture absorption at RH=80%)
Protocol: Hygroscopicity of an amorphous solid form of (S)—N-[5-[1-(3-ethoxy-4-methoxyphenyl)-2-(methylsulfonyl)ethyl]-4,6-dioxo-5,6-dihydro-4H-thieno[3,4-c]pyrrole-1-yl]acetamide was studied. The amorphous solid form of (S)—N-[5-[1-(3-ethoxy-4-methoxyphenyl)-2-(methylsulfonyl)ethyl]-4,6-dioxo-5,6-dihydro-4H-thieno[3,4-c]pyrrole-1-yl]acetamide was placed in a drier containing saturated ammonium chloride solution (RH=80%) until weight was balanced. The crystal form was tested with XRPD.
An amorphous solid form of (S)—N-[5-[1-(3-ethoxy-4-methoxyphenyl)-2-(methylsulfonyl)ethyl]-4,6-dioxo-5,6-dihydro-4H-thieno[3,4-c]pyrrole-1-yl]acetamide prepared according to the process of Example 1 was tested.

[2] = Pressure stability (DSC after tablet pressing); conditions: tablet press machine with single punch, tablet diameter 6 mm, hardness 25-30 N
Protocol: An amorphous solid form of (S)—N-[5-[1-(3-ethoxy-4-methoxyphenyl)-2-(methylsulfonyl)ethyl]-4,6-dioxo-5,6-dihydro-4H-thieno[3,4-c]pyrrole-1-yl]acetamide was pressed by tablet press machine with single punch. The diameter of the tablet was 6 mm and the hardness was 25-30 N. DSC test was carried out on pressed powder.

[3] = Dissolution rate in water; conditions: about 25 mg in 900 mL of water, 37° C., rotating speed 100/minute
Protocol: An amorphous solid form of (S)—N-[5-[1-(3-ethoxy-4-methoxyphenyl)-2-(methylsulfonyl)ethyl]-4,6-dioxo-5,6-dihydro-4H-thieno[3,4-c]pyrrole-1-yl]acetamide prepared according to the process in Example 1 was tested.
About 25 mg of the amorphous solid form of (S)—N-[5-[1-(3-ethoxy-4-methoxyphenyl)-2-(methylsulfonyl)ethyl]-4,6-dioxo-5,6-dihydro-4H-thieno[3,4-c]pyrrole-1-yl]acetamide was added to 900 mL of water. The mixture was stirred at a rotating speed of 100/minute at 37° C. for 90 minutes. The supernatant was filtered and diluted. The concentration of the diluted solution (a mg/mL) was determined by ultraviolet spectrophotometer. The dissolution rate was calculated according to the formula 900a/25×100%.

[4] = Grinding stability (XRPD after grinding)
Protocol: An amorphous solid form of (S)—N-[5-[1-(3-ethoxy-4-methoxyphenyl)-2-(methylsulfonyl)ethyl]-4,6-dioxo-5,6-dihydro-4H-thieno[3,4-c]pyrrole-1-yl]acetamide prepared according to the process of Example 1 was ground in a glass mortar for 5 minutes. The ground samples were tested with XRPD.

## CCOc1cc([C@@H](CS(C)(=O)=O)N2C(=O)c3csc(NC(C)=O)c3C2=O)ccc1OC [amorphous solid form, (S)—N-[5-[1-(3-ethoxy-4-methoxyphenyl)-2-(methylsulfonyl)ethyl]-4,6-dioxo-5,6-dihydro-4H-thieno[3,4-c]pyrrole-1-yl]acetamide]
[1]; RH=80% until weight was balanced
  Moisture absorption stability (conclusion in words): good moisture absorption stability
[1]; drier with saturated ammonium chloride solution (RH=80%) until weight was balanced
  Crystal Form after Absorbing Moisture: Amorphous
[2]
  DSC curve of pressed powder compared with FIG. 2: substantially identical
  Pressure stability (conclusion in words): good stability
[3]; Time 0 min
  Dissolution Rate (%): 0%
[3]; Time 15 min
  Dissolution Rate (%): 38.3%
[3]; Time 30 min
  Dissolution Rate (%): 54.9%
[3]; Time 45 min
  Dissolution Rate (%): 72.8%
[3]; Time 60 min
  Dissolution Rate (%): 63.7%
[4]; Grinding in a glass mortar for 5 minutes
  Crystal Form after Grinding: Amorphous
[4]; ground in a glass mortar for 5 minutes
  Grinding stability (conclusion in words): good grinding stability
